Broadly, the EC50 is the concentration needed to bring the measured effect to its halfway point. Higher therefore signals a less potent agent. In general, logP refers to a log measure of how a compound divides between an organic and an aqueous phase.

Values after ≈ are worked out from the molar mass of the structure shown.

This is an account of results in ChEMBL document CHEMBL1137172, “A library synthesis of 4-hydroxy-3-methyl-6-phenylbenzofuran-2-carboxylic acid ethyl ester derivatives as anti-tumor agents” (Bioorg Med Chem Lett, 2004).

Data set [1] in a line: Effective concentration required for cytotoxicity against human VA-13 cell line. Type of data set: functional, cell-based.
For data set [2], the system named is WI-38. The data set can be described thus: Effective concentration required for cytotoxicity against normal human WI-38 cell line. Format: functional, cell-based.
Data set [3] in a line: Partition coefficient (logP). As to conditions: octanol/water. Type of data set: physicochemical.

`CCOC(=O)c1oc2cc(-c3ccccc3)cc(O)c2c1C`: the EC50 in data set [1] was 0.04 µg/mL (≈ 0.135 µM); in data set [2], greater than 4 µg/mL. Besides, the logP in data set [3] amounted to 2.6.

In data set [1], `CCOC(=O)c1oc2cc(-c3ccc(OCC)cc3)cc(O)c2c1C` yielded an EC50 greater than 4 µg/mL.

As to `CCOC(=O)c1oc2cc(-c3cccc(O)c3)cc(O)c2c1C`, the EC50 in data set [1] was determined as 0.52 µg/mL (≈ 1.66 µM).

`CCOC(=O)c1oc2cc(-c3ccc(OC)cc3)cc(O)c2c1C`: the half-maximal effective concentration (EC50) in data set [1] is greater than 4 µg/mL.

On to `CCOC(=O)c1oc2cc(-c3ccccc3OCc3ccccc3)cc(O)c2c1C`, for which the EC50 in data set [1] was greater than 4 µg/mL.

The molecule `CCOC(=O)c1oc2cc(-c3ccc(O)cc3)cc(O)c2c1C` returned an EC50 in data set [1] of 0.075 µg/mL (≈ 0.24 µM).

`CCOC(=O)c1oc2cc(-c3cccc(OC)c3)cc(O)c2c1C` came in with an EC50 in data set [1] of 0.08 µg/mL (≈ 0.245 µM).

For `CCOC(=O)c1oc2cc(-c3ccc(Br)cc3)cc(O)c2c1C`, in data set [1], the EC50 is greater than 4 µg/mL.

In data set [1], `CCOC(=O)c1oc2cc(-c3ccccc3O)cc(O)c2c1C` gave an EC50 of 0.31 µg/mL (≈ 0.993 µM).

As to `CCOC(=O)c1oc2cc(-c3cccc(OCc4ccccc4)c3)cc(O)c2c1C`, the EC50 in data set [1] was found to be 0.85 µg/mL (≈ 2.11 µM).

Take `COc1cccnc1C(=O)c1oc2cc(-c3ccccc3)cc(O)c2c1C`: the EC50 in data set [1] came out at 0.028 µg/mL (≈ 0.0779 µM). The molecule further showed a logP in data set [3] of 2.2.

In data set [1], `CCOC(=O)c1oc2cc(-c3c(Cl)cccc3Cl)cc(O)c2c1C` returned an EC50 greater than 4 µg/mL.

For `CCOC(=O)c1oc2cc(-c3ccccc3OC)cc(O)c2c1C`, the EC50 in data set [1] amounted to 0.38 µg/mL (≈ 1.16 µM).

With `COc1ccc(C(=O)c2[nH]c3cc(-c4cccc(F)c4)cc(O)c3c2C)c(OC)c1`, in data set [1], the EC50 amounted to 0.12 µg/mL (≈ 0.296 µM). In addition, the logP in data set [3] worked out at 2.7.

With `CCOC(=O)c1oc2cc(-c3cccc([N+](=O)[O-])c3)cc(O)c2c1C`, the EC50 in data set [1] came to 0.075 µg/mL (≈ 0.22 µM).

Molecule `CCOC(=O)c1oc2cc(-c3ccccc3Cl)cc(O)c2c1C` returned an EC50 in data set [1] of 0.35 µg/mL (≈ 1.06 µM).

`CCOC(=O)c1oc2cc(-c3cccc(Cl)c3)cc(O)c2c1C`: in data set [1], the EC50 came to 0.08 µg/mL (≈ 0.242 µM).

For the molecule `CCOC(=O)c1oc2cc(-c3ccc(OCc4ccccc4)cc3)cc(O)c2c1C`, the EC50 in data set [1] was greater than 4 µg/mL.

In turn, `CCOC(=O)c1oc2cc(-c3cccc(C(F)(F)F)c3)cc(O)c2c1C` returned an EC50 in data set [1] of 0.7 µg/mL (≈ 1.92 µM).

`CCOC(=O)c1oc2cc(CC(C)(C)C)cc(O)c2c1C`: the EC50 in data set [1] is greater than 4 µg/mL.

As to `CCOC(=O)c1oc2cc(-c3cccc(Br)c3)cc(O)c2c1C`, the EC50 in data set [1] was 0.085 µg/mL (≈ 0.227 µM).

In turn, `COc1ccc(C(=O)c2oc3cc(-c4cccc(F)c4)cc(O)c3c2C)c(OC)c1` had an EC50 in data set [1] of 0.03 µg/mL (≈ 0.0738 µM). In addition, in data set [3], the logP turned out to be 2.7.

As to `CCOC(=O)c1oc2cc(-c3cccs3)cc(O)c2c1C`, the EC50 in data set [1] was 0.16 µg/mL (≈ 0.529 µM).

The molecule `CCOC(=O)c1oc2cc(-c3cccc(C)c3)cc(O)c2c1C` gave an EC50 in data set [1] of 0.08 µg/mL (≈ 0.258 µM).

In data set [1], `CCOC(=O)c1oc2cc(-c3cccc(F)c3)cc(O)c2c1C` yielded an EC50 of 0.017 µg/mL (≈ 0.0541 µM). This molecule also showed a logP in data set [3] of 2.7.

In data set [1], `COc1cccnc1C(=O)c1oc2cc(-c3cccc(F)c3)cc(O)c2c1C` returned an EC50 of 0.027 µg/mL (≈ 0.0715 µM). In addition, the logP in data set [3] came out at 2.3.

As to `CCOC(=O)c1[nH]c2cc(-c3ccccc3)cc(O)c2c1C`, the EC50 in data set [1] amounted to 0.47 µg/mL (≈ 1.59 µM). Moreover, the logP in data set [3] is 2.6.

In data set [1], `COc1ccc(C(=O)c2oc3cc(-c4ccccc4)cc(O)c3c2C)c(OC)c1` showed an EC50 of 0.04 µg/mL (≈ 0.103 µM). The molecule further had a logP in data set [3] of 2.6.

For the molecule `CCOC(=O)c1oc2cc(C3CCCCC3)cc(O)c2c1C`, in data set [1], the EC50 was greater than 4 µg/mL.

In the case of `CCOC(=O)c1oc2cc(-c3c(F)cccc3Cl)cc(O)c2c1C`, in data set [1], the EC50 was greater than 4 µg/mL.

In data set [1], `CCOC(=O)c1oc2cc(-c3ccc(OCCc4ccccc4)cc3)cc(O)c2c1C` showed an EC50 greater than 4 µg/mL.

In data set [1], `CCOC(=O)c1oc2cc(-c3ccc(Cl)cc3Cl)cc(O)c2c1C` displayed an EC50 greater than 4 µg/mL.

For the molecule `CCOC(=O)c1oc2cc(-c3cccc(N)c3)cc(O)c2c1C`, in data set [1], the EC50 stood at 0.09 µg/mL (≈ 0.289 µM).

As for `CCOC(=O)c1oc2cc(-c3ccc(C)cc3)cc(O)c2c1C`, the EC50 in data set [1] was greater than 4 µg/mL.

`CCOC(=O)c1oc2cc(-c3ccccc3Br)cc(O)c2c1C` returned an EC50 in data set [1] of 0.39 µg/mL (≈ 1.04 µM).

Take `CCOC(=O)c1oc2cc(-c3ccco3)cc(O)c2c1C`: the EC50 in data set [1] turned out to be 0.18 µg/mL (≈ 0.629 µM).

As for `CCOC(=O)c1oc2cc(-c3ccc(OC)c(OC)c3)cc(O)c2c1C`, the EC50 in data set [1] was greater than 4 µg/mL.

For `CCOC(=O)c1oc2cc(-c3ccccc3F)cc(O)c2c1C`, the EC50 in data set [1] came out at 0.048 µg/mL (≈ 0.153 µM).

In data set [1], `CCOC(=O)c1oc2cc(-c3ccc(Cl)cc3)cc(O)c2c1C` registered an EC50 greater than 4 µg/mL.

In the case of `CCOC(=O)c1oc2cc(-c3ccc(F)cc3)cc(O)c2c1C`, the EC50 in data set [1] was found to be 0.37 µg/mL (≈ 1.18 µM).
